Columns and labels:
Ru5-treated cells = assay: Effect of cell death inhibitors on antiproliferative activity; format: cell-based; conditions: 24 h
Experimental: Figure 4. Ru5 induces mitophagy and ferroptosis and inhibits EMT in vitro. (A) TEM images of A549 cells treated with vehicle (1% DMSO) or Ru5 (10 μM, 12 h). Red rectangles represent the region enlarged. Scale bar: 5 μm and 500 nm (enlarged). (B) The morphological examination of mitochondria in A549 cells treated with Ru5 (10 μM) for the indicated time intervals. MTG: λex = 514 nm; λem = 540 ± 20 nm. LTDR: λex = 633 nm; λem = 700 ± 20 nm. Scale bar: 20 μm. (C) Western blotting analysis showing the impact of Ru5 (24 h) on the expression of proteins related to mitochondrial dysfunction and ferroptosis. (D and E) The impact of different inhibitors on antiproliferative activity of Ru5 (24 h). (F) RT-qPCR analysis of EMT-related genes in A549 cells after Ru5 (10 μM, 12 h) treatment. (G) The impact of Ru5 (5 μM) on the migration of A549 cells was measured by a wound healing assay. Scale bar: 100 μm. (H) Quantitative analysis of the impact of Ru5 on wound healing. (I) Selective images of the impact of Ru5 (5 μM, 48 h) on the migration of A549 cells detected by transwell assay. Scale bar: 100 μm. Data are presented as means ± SD from three independent experiments. *P ≤ 0.05, **P ≤ 0.01, ***P ≤ 0.001, by Student's t-test.
We then used different specific inhibitors to further confirm the modes of cell death induced by Ru5. These inhibitors act on autophagy (3-methyladenine, 3-MA, Fig. 4D), ferroptosis (liproxstatin-1, Lip-1, Fig. 4E), necroptosis (necrostatin-1, Nec-1, Fig. S47A) and apoptosis (Z-VAD-FMK, Fig. S47B). The effect of 3-MA on the antiproliferative activity of Ru5 is concentration-dependent, with lower and higher concentrations enhancing and inhibiting the antiproliferative activity of Ru5, respectively. Thus, Ru5 induces cytoprotective autophagy at lower concentrations, while autophagic cell death is induced at higher concentrations. As expected, Lip-1 can relieve the antiproliferative activity of Ru5. However, Nec-1 and Z-VAD-FMK show no effect on the cell viability of Ru5-treated cells.

[1] = tested on: lung adenocarcinoma (A549); assay: MTT antiproliferative assay, A549; format: cell-based, human; conditions: 72 h
Text: Ru3–Ru9 also show a certain selectivity for cancer cells over normal cells, and Ru2, Ru3, Ru5 and Ru9 show higher selectivity index (SI) values than the other complexes.
PA-BPP was then used to confirm the molecular targets of Ru5 by modifying it with a ‘minimalist’ biorthogonal handle-containing photo-cross-linker. Through our structure–activity relationship analysis and comparison with other ruthenium complexes utilizing phen as the auxiliary ligands with similar coordination structures (using cisplatin as a control), we propose that the β-carboline ligands play an important role in antiproliferative activity. To maintain the binding characteristics of the β-carboline moiety with the targeted biomolecules, we linked the photo-cross-linker to one of the auxiliary ligands of Ru5.

## F[P-](F)(F)(F)(F)F.F[P-](F)(F)(F)(F)F.[Ru+2].c1ccc2c(c1)[nH]c1c(-c3ncc[nH]3)nccc12.c1cnc2c(c1)ccc1cccnc12.c1cnc2c(c1)ccc1cccnc12 [Ru5]
Ru5-treated cells
  Effect of 3-MA (autophagy inhibitor) on antiproliferative activity: concentration-dependent
  Effect of Lip-1 (ferroptosis inhibitor) on antiproliferative activity: relieve
  Effect of Nec-1 (necroptosis inhibitor) on cell viability: no effect
  Effect of Z-VAD-FMK (apoptosis inhibitor) on cell viability: no effect
[1]
  IC50: 2.1 ± 0.8 µM

— paper PMC11304990, “Identification of mitochondrial ATP synthase as the cellular target of Ru-polypyridyl-β-carboline complexes by affinity-based protein profiling” (National Science Review, 2024)
